Source: PubChem BioAssay AID330 (DTP/NCI, 2004)
“And” between values parts separate entries of the source, which are not always exact repeats. Equal entries are not always repeated. Inconclusive results and toxic doses are left out. Rule for the calls: active = survival T/C of 150% or more; inactive = T/C below 125% in these data.

Tested on: P388 leukemia ip, CD2F1 mice, survival T/C
Experiment: NCI In Vivo Anticancer Drug Screen. Data for tumor model P388 Leukemia (intraperitoneal) in CD2F1 (CDF1) mice
Conditions: endpoint: median survival time, higher = longer survival
In short: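 Mice carrying the transplanted tumor received test compound or vehicle. Survival was recorded in each group, and the value is the treated-group measurement divided by that of the vehicle-treated control group.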

[1] = dose: 50.0 mg/kg/injection, schedule: Q01DX009 (ip), vehicle: saline with Tween-80
[2] = dose: 60.0 mg/kg/injection, schedule: Q01DX005 (ip), vehicle: Klucel (hydroxypropylcellulose) (HPC)
[3] = dose: 120.0 mg/kg/injection, schedule: Q01DX005 (ip), vehicle: Klucel (hydroxypropylcellulose) (HPC)
[4] = dose: 240.0 mg/kg/injection, schedule: Q01DX005 (ip), vehicle: Klucel (hydroxypropylcellulose) (HPC)

Measured: T/C

Cn1c(Cl)c(C=O)c(=O)n(C)c1=O
inactive: dose: 100.0 mg/kg/injection, schedule: Q04DX003 (ip), vehicle: saline with Tween-80 104 % of control | dose: 200.0 mg/kg/injection, schedule: Q04DX003 (ip), vehicle: saline with Tween-80 96 % of control

C/C(=N\NC(=S)N1CCCCCC1)c1cccc2cccnc12
inactive: dose: 50.0 mg/kg/injection, schedule: Q01DX005 (ip), vehicle: saline with Tween-80 107 % of control | dose: 100.0 mg/kg/injection, schedule: Q01DX005 (ip), vehicle: saline with Tween-80 103 % of control | dose: 200.0 mg/kg/injection, schedule: Q01DX005 (ip), vehicle: saline with Tween-80 116 % of control

Cn1nc[n+](C)n1
inactive: dose: 12.5 mg/kg/injection, schedule: Q01DX009 (ip), vehicle: saline 91 % of control | dose: 25.0 mg/kg/injection, schedule: Q01DX009 (ip), vehicle: saline 91 % of control

CC(C)N(/C=C/C(=O)c1ccccc1)C(C)C
inactive: dose: 12.5 mg/kg/injection, schedule: Q01DX009 (ip), vehicle: saline with Tween-80 99 % of control | dose: 25.0 mg/kg/injection, schedule: Q01DX009 (ip), vehicle: saline with Tween-80 100 % of control | [1] 94 % of control and 95 % of control

O=C1c2ccsc2CN2C(=O)CCC12 (stereo not drawn)
inactive: dose: 60.0 mg/kg/injection, schedule: Q01DX005 (ip), vehicle: saline with Tween-80 95 % of control | dose: 120.0 mg/kg/injection, schedule: Q01DX005 (ip), vehicle: saline with Tween-80 103 % of control | dose: 240.0 mg/kg/injection, schedule: Q01DX005 (ip), vehicle: saline with Tween-80 110 % of control

COC(c1ccccc1)C(Br)c1ccccc1 (stereo not drawn)
inactive: dose: 100.0 mg/kg/injection, schedule: Q01DX001 (ip), vehicle: saline with Tween-80 104 % of control | dose: 200.0 mg/kg/injection, schedule: Q01DX001 (ip), vehicle: saline with Tween-80 95 % of control | dose: 400.0 mg/kg/injection, schedule: Q01DX001 (ip), vehicle: saline with Tween-80 104 % of control

NCCC[Se]CC(N)C(=O)O (stereo not drawn)
inactive: dose: 12.5 mg/kg/injection, schedule: Q01DX005 (ip), vehicle: saline 100 % of control | dose: 25.0 mg/kg/injection, schedule: Q01DX005 (ip), vehicle: saline 102 % of control | dose: 25.0 mg/kg/injection, schedule: Q04DX003 (ip), vehicle: saline 95 % of control | dose: 50.0 mg/kg/injection, schedule: Q01DX005 (ip), vehicle: saline 104 % of control | dose: 50.0 mg/kg/injection, schedule: Q04DX003 (ip), vehicle: saline 111 % of control | dose: 100.0 mg/kg/injection, schedule: Q01DX005 (ip), vehicle: saline 102 % of control | dose: 100.0 mg/kg/injection, schedule: Q04DX003 (ip), vehicle: saline 110 % of control and 119 % of control

CCCCC/C=C/CCCCCCC1C=CCC1 (stereo not drawn)
inactive: dose: 100.0 mg/kg/injection, schedule: Q01DX001 (ip), vehicle: saline 101 % of control | dose: 200.0 mg/kg/injection, schedule: Q01DX001 (ip), vehicle: saline 100 % of control | dose: 400.0 mg/kg/injection, schedule: Q01DX001 (ip), vehicle: saline 100 % of control

NC(=O)N/N=C/Cn1ccc(=O)[nH]c1=O
inactive: dose: 50.0 mg/kg/injection, schedule: Q01DX005 (ip), vehicle: Klucel (hydroxypropylcellulose) (HPC) 99 % of control | dose: 100.0 mg/kg/injection, schedule: Q01DX005 (ip), vehicle: Klucel (hydroxypropylcellulose) (HPC) 97 % of control | dose: 200.0 mg/kg/injection, schedule: Q01DX005 (ip), vehicle: Klucel (hydroxypropylcellulose) (HPC) 90 % of control

Cc1cc(=O)c2ccccc2s1
inactive: [1] 104 % of control | dose: 100.0 mg/kg/injection, schedule: Q01DX009 (ip), vehicle: saline with Tween-80 113 % of control

CCc1c(-c2ccccc2)n[nH]c1-c1[nH]nc(-c2ccccc2)c1CC
inactive: [2] 96 % of control | [3] 96 % of control | [4] 96 % of control

Cc1ccc2c(c1)C(=O)c1ccccc1/C2=C1\c2ccccc2C(=O)c2cc(C)ccc21
inactive: dose: 50.0 mg/kg/injection, schedule: Q01DX005 (ip), vehicle: Klucel + Tween-80 105 % of control | dose: 100.0 mg/kg/injection, schedule: Q01DX005 (ip), vehicle: Klucel + Tween-80 89 % of control | dose: 200.0 mg/kg/injection, schedule: Q01DX005 (ip), vehicle: Klucel + Tween-80 89 % of control

CCCN=C(c1ccccc1C=O)c1c2ccccc2cn1CCC
inactive: dose: 7.5 mg/kg/injection, schedule: Q01DX005 (ip), vehicle: saline + Tween-80 + alcohol 114 % of control | dose: 15.0 mg/kg/injection, schedule: Q01DX005 (ip), vehicle: saline + Tween-80 + alcohol 124 % of control | dose: 30.0 mg/kg/injection, schedule: Q01DX005 (ip), vehicle: saline + Tween-80 + alcohol 119 % of control

CN(C=O)c1ccc(C(=O)NC(CCC(=O)O)C(=O)O)cc1 (stereo not drawn)
inactive: [2] 98 % of control | [3] 98 % of control | [4] 89 % of control
